Biological target: Transient receptor potential cation channel subfamily V member 1 (Homo sapiens, UniProt Q8NER1)
Assay: RTX Competition Binding Assay.: Binding studies with [3H]RTX were carried out as follows. The binding assay mixtures were prepared in 1.5 ml centrifuge tubes and consisted of a fixed concentration (approximately 2 nM) of [3H]RTX (37 Ci/mmol specific activity, PerkinElmer Life Sciences), various concentrations of competing ligands, and […] of membranes from induced CHO-hTRPV1 expressing cells (approximately 1-3×10^6 cells) in Dulbecco's phosphate buffered saline (DPBS, with Ca2+ & Mg2+) for a total volume of 350 μl. The assay mix contained bovine serum albumin at a final concentration of 0.25 mg/ml (Cohn fraction V; Sigma-Aldrich, St. Louis, Mo.). In each set of experiments, nonspecific binding were determined in the presence of 200 nM non-radioactive RTX. The binding reaction was initiated by placing the assay mixture in a 37° C. shaking water bath for 60 minutes (−30 rpm). The assay mixture was then chilled on ice for 2-3 min before adding 100 μl of α1-acid glycoprotein (2 mg/ml; Sigma-Aldrich) and mixed thoroughly. The tubes were kept on ice for an additional 10 min. The bound and free ligands were then separated by centrifugation (12,200 rpm for 15 minutes) in a Beckman Coulter centrifuge Allegra 21R. 200 μl of supernatant was collected for determination of free ligand. The remainder was removed by aspiration.

Sequence of Transient receptor potential cation channel subfamily V member 1 (Q8NER1 whole entry): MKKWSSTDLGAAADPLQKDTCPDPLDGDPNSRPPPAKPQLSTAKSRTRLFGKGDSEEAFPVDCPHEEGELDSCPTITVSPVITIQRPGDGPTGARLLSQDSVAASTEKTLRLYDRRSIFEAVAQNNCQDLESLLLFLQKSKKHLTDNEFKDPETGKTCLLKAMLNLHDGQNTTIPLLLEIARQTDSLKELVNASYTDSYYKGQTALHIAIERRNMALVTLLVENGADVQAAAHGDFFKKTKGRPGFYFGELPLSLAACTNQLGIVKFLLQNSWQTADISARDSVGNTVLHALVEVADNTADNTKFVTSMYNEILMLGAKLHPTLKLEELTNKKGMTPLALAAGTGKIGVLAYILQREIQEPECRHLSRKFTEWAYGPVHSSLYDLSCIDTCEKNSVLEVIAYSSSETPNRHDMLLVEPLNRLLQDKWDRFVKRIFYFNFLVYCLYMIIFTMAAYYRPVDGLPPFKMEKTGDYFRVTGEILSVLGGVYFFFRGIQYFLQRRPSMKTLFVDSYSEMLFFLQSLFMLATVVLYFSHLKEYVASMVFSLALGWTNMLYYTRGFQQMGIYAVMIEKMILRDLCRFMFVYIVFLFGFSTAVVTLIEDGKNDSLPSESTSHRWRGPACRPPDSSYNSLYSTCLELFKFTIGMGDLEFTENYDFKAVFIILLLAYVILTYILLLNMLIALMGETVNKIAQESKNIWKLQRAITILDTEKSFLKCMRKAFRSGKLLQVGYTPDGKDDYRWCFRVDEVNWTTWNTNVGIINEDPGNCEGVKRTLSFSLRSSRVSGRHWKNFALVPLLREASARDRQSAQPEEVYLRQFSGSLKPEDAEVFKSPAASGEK

O=C(Nc1cccc(C(F)(F)F)c1)Nc1ccc([N+](=O)[O-])cc1Cl
Ki: 2570 nM
